Experimental findings from ChEMBL document CHEMBL5729030, “Compound as selective JAK inhibitor, and salt and therapeutic use thereof” (2022) are described below.

Where only a bound is given, the exact number is not on record here.

For experiment [1], the target named is T1, Tyrosine-protein kinase JAK3 (Homo sapiens, UniProt P52333).
T1 sequence (P52333 whole entry): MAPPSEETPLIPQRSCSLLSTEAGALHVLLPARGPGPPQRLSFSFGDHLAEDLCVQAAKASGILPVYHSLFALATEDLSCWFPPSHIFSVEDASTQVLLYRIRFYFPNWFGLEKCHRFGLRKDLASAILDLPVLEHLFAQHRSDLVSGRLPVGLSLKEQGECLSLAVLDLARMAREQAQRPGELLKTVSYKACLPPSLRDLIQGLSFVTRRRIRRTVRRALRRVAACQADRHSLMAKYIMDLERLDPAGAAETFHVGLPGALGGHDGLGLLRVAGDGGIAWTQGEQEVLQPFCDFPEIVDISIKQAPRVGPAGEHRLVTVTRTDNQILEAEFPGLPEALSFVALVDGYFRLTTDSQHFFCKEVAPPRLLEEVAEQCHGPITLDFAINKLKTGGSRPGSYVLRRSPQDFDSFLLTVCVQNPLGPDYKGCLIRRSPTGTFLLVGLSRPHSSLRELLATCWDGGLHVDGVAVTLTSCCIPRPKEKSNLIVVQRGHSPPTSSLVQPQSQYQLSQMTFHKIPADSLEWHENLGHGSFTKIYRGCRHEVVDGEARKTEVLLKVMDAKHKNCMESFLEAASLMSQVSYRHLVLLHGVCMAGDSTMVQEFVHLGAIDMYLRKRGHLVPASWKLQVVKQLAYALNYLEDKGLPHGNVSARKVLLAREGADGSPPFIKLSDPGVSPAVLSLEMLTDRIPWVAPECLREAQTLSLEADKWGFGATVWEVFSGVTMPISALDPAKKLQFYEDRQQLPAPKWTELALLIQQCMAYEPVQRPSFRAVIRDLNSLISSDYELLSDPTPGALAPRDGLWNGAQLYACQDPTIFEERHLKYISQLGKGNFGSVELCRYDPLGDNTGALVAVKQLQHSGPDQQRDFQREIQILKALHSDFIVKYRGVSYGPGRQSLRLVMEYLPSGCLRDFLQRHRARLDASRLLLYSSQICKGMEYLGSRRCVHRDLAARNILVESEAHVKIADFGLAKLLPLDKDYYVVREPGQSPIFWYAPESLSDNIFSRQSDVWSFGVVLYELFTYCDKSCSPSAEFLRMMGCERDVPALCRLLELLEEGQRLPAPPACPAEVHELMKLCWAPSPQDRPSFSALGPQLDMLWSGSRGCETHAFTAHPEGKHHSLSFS
The experiment in a line: (§1) Inhibition of JAK: The study of the effect of compounds on the activity of purified recombinant JAK was performed by studying the inhibitory activity of the compounds on JAK from the enzymatic level. The experimental principle is to use a luminescence kinase assay to detect the ADP content produced by the reaction of JAK with the substrate Poly (4:1 Glu, Tyr) peptide: after ADP is converted to ATP, ATP can act as a substrate for the Ultra-Glo luciferase catalytic reaction, producing an optical signal. The luminescence signal is positively correlated with the amount of ADP and kinase activity. Therefore, the inhibitory effect of the compounds on the recombinant JAK was determined by observing the luminescence signal produced by the reaction of JAK and the substrate, and was expressed by IC50.

Experiment [2] addresses Tyrosine-protein kinase JAK2 (Homo sapiens, UniProt O60674). Described as §1.

Chain of Tyrosine-protein kinase JAK2 (O60674 whole entry): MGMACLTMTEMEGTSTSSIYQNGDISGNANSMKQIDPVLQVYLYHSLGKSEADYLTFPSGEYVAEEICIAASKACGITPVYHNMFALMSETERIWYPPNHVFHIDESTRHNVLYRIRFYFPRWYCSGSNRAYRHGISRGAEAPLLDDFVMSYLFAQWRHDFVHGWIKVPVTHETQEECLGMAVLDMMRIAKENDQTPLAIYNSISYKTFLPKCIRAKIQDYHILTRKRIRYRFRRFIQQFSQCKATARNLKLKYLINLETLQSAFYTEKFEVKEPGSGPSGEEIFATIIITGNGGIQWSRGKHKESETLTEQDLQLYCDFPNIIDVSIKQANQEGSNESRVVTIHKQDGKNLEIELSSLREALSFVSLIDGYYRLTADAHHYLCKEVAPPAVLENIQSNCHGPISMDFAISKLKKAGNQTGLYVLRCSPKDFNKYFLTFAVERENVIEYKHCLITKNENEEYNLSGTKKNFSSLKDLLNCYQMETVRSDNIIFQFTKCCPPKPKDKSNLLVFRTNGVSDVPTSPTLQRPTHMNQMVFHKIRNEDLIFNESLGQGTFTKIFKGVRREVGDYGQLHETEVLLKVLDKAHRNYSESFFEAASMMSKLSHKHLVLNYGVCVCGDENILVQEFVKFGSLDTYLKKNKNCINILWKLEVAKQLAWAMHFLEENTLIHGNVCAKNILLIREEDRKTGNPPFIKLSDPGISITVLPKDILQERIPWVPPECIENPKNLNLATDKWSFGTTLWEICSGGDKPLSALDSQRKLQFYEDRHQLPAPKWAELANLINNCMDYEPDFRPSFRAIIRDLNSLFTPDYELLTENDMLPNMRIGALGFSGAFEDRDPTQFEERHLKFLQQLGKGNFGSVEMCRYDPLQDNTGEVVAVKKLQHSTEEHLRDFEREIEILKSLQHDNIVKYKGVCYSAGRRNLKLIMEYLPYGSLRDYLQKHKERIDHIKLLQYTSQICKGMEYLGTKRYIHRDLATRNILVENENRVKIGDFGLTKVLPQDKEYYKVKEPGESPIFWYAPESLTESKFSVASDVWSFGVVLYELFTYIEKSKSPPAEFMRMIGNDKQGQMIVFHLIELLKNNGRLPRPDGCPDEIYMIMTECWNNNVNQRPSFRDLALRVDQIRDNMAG

A word on the IC50: it is the concentration at which inhibition is half-maximal. Regarding `CS(=O)(=O)C1CN(Cc2ccc(-c3cccn4nc(NC(=O)C5CC5)nc34)cc2F)C1`, the IC50 in experiment [1] and in experiment [2] was > 50 nM each time.
For the molecule `CS(=O)(=O)C1CN(Cc2ccc(-c3cccc4nc(NC(=O)C5CC5)nn34)cc2F)C1`, the IC50 in experiment [1] and in experiment [2] was > 50 nM throughout.
